Assay results: patent publication US20250346601A1, “HETEROCYCLIC COMPOUNDS FOR THE PREVENTION AND THERAPY OF CIRCADIAN RHYTHM DISORDERS” (UNIVERZITA PALACKEHO V OLOMOUCI, priority 2022, published 2025)

Assays:
[1] = system: NIH3T3 line transfected with the Per2-Luc reporter; assay: Period of the circadian rhythm in NIH3T3 fibroblasts with Per2-Luc reporter (luminescence, cosinor analysis); assay type: cell-based, mouse; conditions: for Period length ± standard error of the mean (expressed relative to the control) at the indicated concentration: NIH3T3, DMSO control = 1.00
Description: NIH3T3 mouse embryonic fibroblasts were grown in standard DMEM with 10% fetal bovine serum. NIH3T3 cells were transfected with 1 μg of Per2-Luc reporter using GeneJuice and selected under hygromycin. The cell line was clonally expanded and a single monoclonal cell line was used for further experiments. Cells were cultured in a 96-well plate in growth medium to 90+% confluence. Test compound or vehicle (DMSO) was applied to recording medium with 100 U/ml penicillin, 100 μg/ml streptomycin, 1x GlutaMAX, 10% fetal calf serum and 0.1 mM Luciferin-EF (Promega Madison, WI, USA). Luminescence was recorded every hour for the next 144 hours. Circadian rhythm analysis was performed using cosinor analysis. Period length was expressed relative to the period of cells affected only by DMSO vehicle (their period length is therefore 1.00).

[2] = system: U2OS line transduced with the Bmal 1-Luc reporter; assay: Period of the circadian rhythm in U2OS cells with Bmal1-Luc reporter (luminescence, cosinor analysis); assay type: cell-based, Human; conditions: for Period length ± standard error of the mean (expressed relative to control) at the indicated concentration: U2OS, DMSO control = 1.00
Description: Human osteosarcoma U2OS cells were grown in standard DMEM medium with 10% fetal bovine serum. U2OS cells were transduced with lentiviral particles containing a Bmall-Luc fusion reporter and selected under Blasticidin. The cell line was clonally expanded and a single monoclonal cell line was used for further experiments. Cells were cultured in a 384-well plate in growth medium to 90+% confluence. Test compound or vehicle (DMSO) was applied to recording medium with 100 U/ml penicillin, 100 ug/ml streptomycin, 1x GlutaMAX, 10% fetal bovine serum, and 0.1 mM Luciferin-EF. Luminescence was recorded every hour for the next 144 hours. Circadian rhythm analysis was performed using cosinor analysis.
The length of the period was expressed relative to the period of cells affected only by DMSO vehicle (their period is therefore 1.00). […] The overall effect on circadian oscillations unequivocally proves that the compounds of formula I can be also used to temporally modulate the concentration and activity of not only BMAL1, but also other components of the oscillator including the critical components PER2, CRY and CLOCK in time, as these are an essential part of the mechanism generating the rhythmic expression of the luminescent reporter used. The concentration and level of other proteins, whose rhythmic expression is controlled by an oscillator in the brain and peripheral tissues (so-called clock-controlled genes), are also necessarily affected. The influence of the compounds of formula I on the activity of oscillator components and subordinate genes also means influencing the physiological processes of the cell controlled by these genes and proteins. N^6-furfuryladenine was used as a reference compound. […] The ability to shift the phase of the circadian cycle can be seen in FIG. 2.

| Structure (SMILES) | Period length ± standard error of the mean (expressed relative to the control) at the indicated concentration ([1]; 50 μM) | Period length ± standard error of the mean (expressed relative to control) at the indicated concentration ([2]; 10 μM) | Period length ± standard error of the mean (expressed relative to control) at the indicated concentration ([2]; 20 μM) | also measured |
| --- | --- | --- | --- | --- |
| CN(C)c1nc(NCc2ccco2)c2ncn(C3CCCO3)c2n1 (stereo not drawn) [Compound 23] | 1.36 ± 0.04 | 10 μM: 1.08 ± 0.01 |  | Period length ± standard error of the mean (expressed relative to the control) at the indicated concentration ([1]; 10 μM): 1.07 ± 0.01 |
| c1coc(CNc2nc(NCc3ccco3)c3ncn(C4CCCCO4)c3n2)c1 (stereo not drawn) [Compound 38] | 50 μM: 1.22 ± 0.06 | 10 μM: 1.1 ± 0.02 |  |  |
| CN(C)CCNc1nc(NCc2ccco2)c2ncn(C3CCCC3)c2n1 [Compound 17] | 2.17 ± 0.1 | 10 μM: 1.48 ± 0.28 |  | Period length ± standard error of the mean (expressed relative to the control) at the indicated concentration ([1]; 10 μM): 1.71 ± 0.04 |
| CNc1nc(NCc2ccc(C)o2)c2ncn(C3CCCCO3)c2n1 (stereo not drawn) [Compound 50] | 50 μM: 1.6 ± 0.02 | 1.11 ± 0.01 | 1.14 ± 0.02 |  |
| COCn1cnc2c(NCc3ccco3)ncnc21 [N-(furan-2-ylmethyl)-9-(methoxymethyl)-9H-purin-6-amine, reference compound] | 50 μM: 0.96 ± 0.02 |  |  | Period length ± standard error of the mean (expressed relative to control) at the indicated concentration ([2]; 50 μM): 50 μM: 1.01 ± 0.01 |
| CCOCn1cnc2c(NCc3ccco3)ncnc21 [9-(ethoxymethyl)-N-(furan-2-ylmethyl)-9H-purin-6-amine, reference compound] | 50 μM: 1 ± 0.03 |  |  | Period length ± standard error of the mean (expressed relative to control) at the indicated concentration ([2]; 50 μM): 50 μM: 1.01 ± 0.01 |
| CC(C)(C)OCCn1cnc2c(NCc3ccco3)ncnc21 [9-[2-(tert-butoxy)ethyl]-N-(furan-2-ylmethyl)-9H-purin-6-amine, reference compound] | 50 μM: 0.9 ± 0.06 |  |  | Period length ± standard error of the mean (expressed relative to control) at the indicated concentration ([2]; 50 μM): 50 μM: 1 ± 0.01 |
| CNc1nc(NCc2ccco2)c2ncn(C3CCCO3)c2n1 (stereo not drawn) [Compound 22] | 50 μM: 1.22 ± 0.02 | 10 μM: 1.06 ± 0 |  |  |
| c1coc(CNc2ncnc3nc[nH]c23)c1 [N^6-furfuryladenine, reference compound] | 50 μM: 1.06 ± 0.02 |  | 20 μM: 1.02 ± 0.01 | Effect on the period of the circadian rhythm (in words) ([1]; NIH3T3 Per2-Luc): much smaller effect; Effect on the period of the circadian rhythm (in words) ([2]; U2OS Bmal1-Luc): minimal effect |
| c1coc(CNc2nc(N3CCOCC3)nc3c2ncn3C2CCCC2)c1 [Compound 20] | 1.55 ± 0.03 |  |  | Period length ± standard error of the mean (expressed relative to the control) at the indicated concentration ([1]; 0.83 μM): 1.04 ± 0.01; Period length ± standard error of the mean (expressed relative to control) at the indicated concentration ([2]; 1 μM): 1.09 ± 0.01; Period length ± standard error of the mean (expressed relative to control) at the indicated concentration ([2]; 4 μM): 1.67 ± 0.33 |
| CNc1nc(NCc2ccco2)c2ncn(C3CCCCCO3)c2n1 (stereo not drawn) [Compound 60] | 50 μM: 1.42 ± 0.04 |  | 1.15 ± 0.01 | Period length ± standard error of the mean (expressed relative to control) at the indicated concentration ([2]; 5 μM): 1.04 ± 0 |
| Cc1ccc(CNc2nc(N(C)C)nc3c2ncn3C2CCCO2)o1 (stereo not drawn) [Compound 24] | 50 μM: 1.24 ± 0.07 | 1.03 ± 0 | 1.09 ± 0.01 |  |
